In US8703796B2, “3H-imidazo [4, 5-B] pyridine-6-carboxamides as anti-inflammatory agents” (Boehringer Ingelheim International GmbH, priority 2008, dated 2014) one finds inhibition data, which are given here for 25 compounds.

The assay addresses T1, recombinant human mPGES-1 (Homo sapiens, UniProt O14684).
T1 construct: made in house; host or cells: Rosetta E. coli (microsomal/membrane fraction)
T1 sequence (O14684 1-152): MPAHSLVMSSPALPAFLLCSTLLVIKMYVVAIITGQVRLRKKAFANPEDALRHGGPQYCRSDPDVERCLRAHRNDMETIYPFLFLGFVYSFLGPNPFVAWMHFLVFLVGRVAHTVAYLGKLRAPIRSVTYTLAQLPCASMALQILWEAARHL
As to the kind of experiment: mPGES-1 inhibition, HTRF detection of PGE2. The assay is classed as biochemical. As to the method:
Microsomes from Rosetta E. coli bacteria expressing recombinant human mPGES-1 is dissolved in 0.1 M KPi pH 7.4 buffer containing 2.5 mM GSH. 50 μl of the enzyme is subsequently dispensed in a 384-well plate. 0.5 μl of the inhibitor dissolved in DMSO at is thereafter added to each well and incubated for 25 minutes at room temperature. Subsequently, 2 μl of PGH2 dissolved in an appropriate solvent is added to each well and after one minute the acidified stop solution containing FeCl2 is added. 4 μl of the total volume is transferred to a separate plate and diluted 750-fold in two separate steps before HTRF detection of PGE2.
The HTRf detection is performed by the use of a commercially available kit from CisBio essentially according to the manufacturer's protocol. Briefly, 10 μl of the diluted sample is transferred to a white 384-well plate. 5 μl of d2 and 5 μl Eu3+-Cryptate labeled anti-PGE2 is added to each well containing samples by the use of a Multidrop. The plate is covered with a plastic self-adhesive film, centrifuged at 1200 rpm for 1 minute and subsequently stored at +4° C. over night.
After over night incubation the fluorescence is measured by the use of an appropriate microplate reader. The fluorescence of europium cryptate, and d2 are measured using the following excitation and emission wavelength, europium cryptate: λmax^ex=307 nm, λmax^em=620 nm and d2: λmax^ex=620 nm, λmax^em=665 nm), respectively. The extent of the specific FRET is measured as a ratio of the emission intensity at 665 nm vs. that at 620 nm. A standard curve using synthetic PGE2 is used to quantify the amount of PGE2 in unknown samples.
Background: In TR-FRET formats the signal depends on donor and acceptor labels being close together.

As for `CN(C)CCOc1nc2c(cc1C(=O)N[C@H]1CC[C@H](C(F)(F)F)CC1)nc(Nc1c(Cl)cc(F)cc1Cl)n2C` [Example 865, 2-(2,6-Dichloro-4-fluoro-phenylamino)-5-(2-dimethylamino-ethoxy)-N-(trans-4-trifluoromethyl-cyclohexyl)-3-methyl-3H-imidazo[4,5-b]pyridine-6-carboxamide], the inhibition at 10 µM turned out to be 92%.

Turning to `O=C(Nc1ccc(Br)cc1)c1cc2nc(Nc3ccccc3C(F)(F)F)[nH]c2nc1OCC(F)F` [Example 775, N-(4-Bromo-phenyl)-2-(2-trifluoromethyl-phenylamino)-5-(2,2-difluoroethoxy)-3H-imidazo[4,5-b]pyridine-6-carboxamide], the inhibition at 1 µM was determined as 95%.

For the compound `O=C(NCc1ccccc1C(F)(F)F)c1cc2nc(Nc3c(Cl)cc(F)cc3Cl)[nH]c2nc1OCC(F)F` [Example 824, 2-(2,6-Dichloro-4-fluoro-phenylamino)-5-(2,2-difluoro-ethoxy)-N-(2-trifluoromethyl-benzyl)-3H-imidazo[4,5-b]pyridine-6-carboxamide], the inhibition at 10 µM is 100%.

As to `Cn1c(Nc2cnccc2C(F)(F)F)nc2cc(C(=O)N[C@H]3CC[C@H](C(F)(F)F)CC3)c(OCC(F)F)nc21` [Example 789, 2-(4-Trifluoromethyl-pyridin-3-ylamino)-5-(2,2-difluoro-ethoxy)-N-(trans-4-trifluoromethyl-cyclohexyl)-3-methyl-3H-imidazo[4,5-b]pyridine-6-carboxamide], the inhibition at 10 µM worked out at 95%.

Take `Cc1ccnc(Cl)c1Nc1nc2cc(C(=O)N[C@H]3CC[C@H](C(F)(F)F)CC3)c(OCC(F)F)nc2[nH]1` [Example 797, 2-(2-Chloro-4-methyl-pyridin-3-ylamino)-5-(2,2-difluoro-ethoxy)-N-(trans-4-trifluoromethyl-cyclohexyl)-3H-imidazo[4,5-b]pyridine-6-carboxamide]: the inhibition at 10 µM was 100%.

Turning to `COCCOc1nc2c(cc1C(=O)N[C@H]1CC[C@H](C(F)(F)F)CC1)nc(Nc1c(Cl)cncc1Cl)n2C` [Example 868, 2-(3,5-Dichloro-pyridin-4-ylamino)-5-(2-methoxy-ethoxy)-N-(trans-4-trifluoromethyl-cyclohexyl)-3-methyl-3H-imidazo[4,5-b]pyridine-6-carboxamide], the inhibition at 10 µM turned out to be 100%.

For `CC(C)n1c(Nc2c(F)cccc2Cl)nc2cc(C(=O)NC3CCC(C)(C)CC3)cnc21` [Example 511, 2-(2-Chloro-6-fluorophenylamino)-N-(4,4-dimethylcyclohexyl)-3-isopropyl-3H-imidazo[4,5-b]pyridine-6-carboxamide], the inhibition at 10 µM is 96%.

Consider `Cc1ccnc(Cl)c1Nc1nc2cc(C(=O)N[C@H]3CC[C@H](C(F)(F)F)CC3)c(OCC(F)F)nc2n1C` [Example 788, 2-(2-Chloro-4-methyl-pyridin-3-ylamino)-5-(2,2-difluoro-ethoxy)-N-(trans-4-trifluoromethyl-cyclohexyl)-3-methyl-3H-imidazo[4,5-b]pyridine-6-carboxamide], for which the inhibition at 10 µM is 98%.

On to `CCCC[C@H](C)NC(=O)c1cnc2c(c1)nc(Nc1c(Cl)cccc1Cl)n2C` [Example 527, (S)-2-(2,6-Dichlorophenylamino)-N-(hex-2-yl)-3-methyl-3H-imidazo[4,5-b]pyridine-6-carboxamide], for which the inhibition at 10 µM is 96%.

As to `Cn1c(Nc2c(Cl)cc(F)cc2Cl)nc2cc(C(=O)N[C@H]3CC[C@H](C(F)(F)F)CC3)c(OCC(F)F)nc21` [Example 863, 2-(2,6-Dichloro-4-fluoro-phenylamino)-5-(2,2-difluoro-ethoxy)-N-(trans-4-trifluoromethyl-cyclohexyl)-3-methyl-3H-imidazo[4,5-b]pyridine-6-carboxamide], the inhibition at 10 µM came out at 82%.

`CCCCCCCCNC(=O)c1cnc2c(c1)nc(Nc1c(Cl)cccc1Cl)n2C` [Example 403, 2-(2,6-Dichlorophenylamino)-3-methyl-N-octyl-3H-imidazo[4,5-b]pyridine-6-carboxamide]: the inhibition at 10 µM stood at 100%.

In the case of `CCOc1nc2[nH]c(Nc3c(Cl)cncc3Cl)nc2cc1C(=O)N[C@H]1CC[C@H](C(F)(F)F)CC1` [Example 842, 2-(3,5-Dichloro-pyridin-4-ylamino)-5-ethoxy-N-(trans-4-trifluoromethyl-cyclohexyl)-3H-imidazo[4,5-b]pyridine-6-carboxamide], the inhibition at 10 µM is 92%.

On to `CC#CCn1c(Nc2c(Cl)cccc2Cl)nc2cc(C(=O)NC3CCCCC3)cnc21` [Example 523, 3-(But-2-ynyl)-N-cyclohexyl-2-(2,6-dichlorophenylamino)-3H-imidazo[4,5-b]pyridine-6-carboxamide], for which the inhibition at 10 µM amounted to 96%.

Take `COCCOc1nc2[nH]c(Nc3c(Cl)cncc3Cl)nc2cc1C(=O)Nc1ccc(Br)cc1` [Example 801, 2-(3,5-Dichloro-pyridin-4-ylamino)-5-(2-methoxy-ethoxy)-N-(4-bromo-phenyl)-3H-imidazo[4,5-b]pyridine-6-carboxamide]: the inhibition at 10 µM is 96%.

As for `CCOc1nc2[nH]c(Nc3c(Cl)cncc3Cl)nc2cc1C(=O)NCC(F)(F)C(F)(F)C(F)(F)C(F)(F)F` [Example 844, 2-(3,5-Dichloro-pyridin-4-ylamino)-5-ethoxy-N-(2,2,3,3,4,4,5,5,5-nonafluoro-pentyl)-3H-imidazo[4,5-b]pyridine-6-carboxamide], the inhibition at 10 µM came to 100%.

`O=C(N[C@H]1CC[C@H](C(F)(F)F)CC1)c1cc2nc(Nc3c(F)cccc3Cl)[nH]c2nc1OCC(F)F` [Example 785, 2-(2-Chloro-6-fluoro-phenylamino)-5-(2,2-difluoro-ethoxy)-N-(trans-4-trifluoromethyl-cyclohexyl)-3H-imidazo[4,5-b]pyridine-6-carboxamide]: the inhibition at 10 µM turned out to be 100%.

With `Cn1c(Nc2c(Cl)cncc2Cl)nc2cc(C(=O)NCC(F)(F)C(F)(F)C(F)(F)C(F)(F)F)c(OCC(F)F)nc21` [Example 840, 2-(3,5-Dichloro-pyridin-4-ylamino)-5-(2,2-difluoro-ethoxy)-N-(2,2,3,3,4,4,5,5,5-nonafluoropentyl)-3-methyl-3H-imidazo[4,5-b]pyridine-6-carboxamide], the inhibition at 10 µM was 99%.

In the case of `CCCCC[C@H](C)NC(=O)c1cnc2c(c1)nc(Nc1c(Cl)cccc1Cl)n2C` [Example 497, (S)-2-(2,6-Dichlorophenylamino)-N-(hept-2-yl)-3-methyl-3H-imidazo[4,5-b]pyridine-6-carboxamide], the inhibition at 10 µM came out at 98%.

For `Cn1c(Nc2c(Cl)cncc2Cl)nc2cc(C(=O)NCc3ncccc3C(F)(F)F)c(OCC(F)F)nc21` [Example 841, 2-(3,5-Dichloro-pyridin-4-ylamino)-5-(2,2-difluoro-ethoxy)-N-((3-trifluoromethyl-pyridin-2-yl)-methyl)-3-methyl-3H-imidazo[4,5-b]pyridine-6-carboxamide], the inhibition at 10 µM turned out to be 99%.

`CC1(C)CCC(NC(=O)c2cnc3[nH]c(Nc4c(F)cccc4Cl)nc3c2)CC1` [Example 466, 2-(2-Chloro-6-fluorophenylamino)-N-(4,4-dimethylcyclohexyl)-3H-imidazo[4,5-b]pyridine-6-carboxamide]: the inhibition at 10 µM was found to be 100%.

Turning to `Cn1c(Nc2ccccc2C(F)(F)F)nc2cc(C(=O)N[C@H]3CC[C@H](C(F)(F)F)CC3)c(OCC(F)F)nc21` [Example 782, 2-(2-Trifluoromethyl-phenylamino)-5-(2,2-difluoro-ethoxy)-N-(trans-4-trifluoromethyl-cyclohexyl)-3-methyl-3H-imidazo[4,5-b]pyridine-6-carboxamide], the inhibition at 10 µM turned out to be 100%.

Consider `Cn1c(Nc2c(Cl)cccc2Cl)nc2cc(C(=O)N[C@H]3CC[C@H](C(F)F)CC3)cnc21` [Example 560], for which the inhibition at 10 µM worked out at 93%.

As for `Cn1c(Nc2c(Cl)cncc2Cl)nc2cc(C(=O)N[C@H]3CC[C@H](C(F)(F)F)CC3)c(OC3CCOC3)nc21` (stereo partly drawn) [Example 846, 2-(3,5-Dichloro-pyridin-4-ylamino)-5-(tetrahydrofuran-3-yl-oxy)-N-(trans-4-trifluoromethyl-cyclohexyl)-3-methyl-3H-imidazo[4,5-b]pyridine-6-carboxamide], the inhibition at 10 µM turned out to be 100%.

Turning to `O=C(Nc1ccc(Br)cc1)c1cc2nc(Nc3c(Cl)cc(F)cc3Cl)[nH]c2nc1OCC(F)(F)F` [Example 820, 2-(2,6-Dichloro-4-fluoro-phenylamino)-5-(2,2,2-trifluoro-ethoxy)-N-(4-bromo-phenyl)-3H-imidazo[4,5-b]pyridine-6-carboxamide], the inhibition at 10 µM turned out to be 99%.

On to `CC(=O)N(C)CCOc1nc2c(cc1C(=O)Nc1ccc(Br)cc1)nc(Nc1c(Cl)cncc1Cl)n2C` [Example 810, 2-(3,5-Dichloro-pyridin-4-ylamino)-5-(2-(acetyl-methyl-amino)-ethoxy)-N-(4-bromo-phenyl)-3-methyl-3H-imidazo[4,5-b]pyridine-6-carboxamide], for which the inhibition at 10 µM is 96%.

What is called inhibition is how much of the control response was suppressed.
